Reference: publication PMC8717366, “Synthesis and Pharmacological Characterization of Visabron, a Backbone Cyclic Peptide Dual Antagonist of α4β1 (VLA-4)/α9β1 Integrin for Therapy of Multiple Sclerosis” (JACS Au, 2021)
Like-named read-outs stand apart in the source and are kept apart here. Numbered stars: 1 amine (or outer) side, 2 acyl side, 3 side chain; on linkers, the order of the positions; unused ones are H or OH. Bridge positions count the residues as written; N and C are the ends. Square brackets hold non-standard residues; d marks the D form. Peptide text beside a SMILES is read from it. CO = O=C([*:1])[*:2]; Nlys = NCCCCNCC(=O)O

Experiments:
[1] = 48 h
Description: Eight-week-old C57Bl/6 mice were obtained from Envigo animal breeding center in Israel. All experiments were approved by the Institutional Animal Care and Use Committee, and performed according to OECD guidelines for chemical testing. One group of five mice (7683–87) received visabron c (4–4) by iv injection in a volume of 0.2 mL/mouse at a dose of 10 mg/mice (about 500 mg/kg), and another group of five mice (7688–92) received per-os visabron c (4–4) at a dose of 10 mg/mice, dissolved in a nanoemulsifying drug delivery system,[48] in a bolus of 0.4 mL/mouse. After 48 h of exposure, the animals were sacrificed and the organs were harvested for the detection of possible toxicological lesions in the framework of a safety assessment. Then the organs were fixed in 4% formaldehyde, trimmed in a standard position per organ, and transferred to embedding cassettes. Paraffin blocks were sectioned at approximately 3–5 μm thickness. The sections were applied on a glass slide and stained with hematoxylin and eosin (H&E). Pictures were taken on a microscope (Olympus BX60) at magnifications of X4 and X10 using the microscope’s camera (Olympus DP73). An experienced pathologist (Dr. Loeb Emanuel) examined the slides. Microscopically findings were classified with standard pathological nomenclature and the severity of the findings was graded on a scale of minimal, mild, or severe. Grades of severity for microscopic findings were subjective; minimal was the least extent discernible and severe was the greatest extent possible.
Table S11. Histological pathological grades of organs slides obtained from mice treated for 48 h with 500 mg/kg Visabron c(4-4)*
Number** Heart Lung Kidney Intestine Large Stomach Spleen Liver Brain […]
*Grade 0: no signs of pathological changes; Grade 1: mild pathological changes; Grade 2: moderate pathological changes; Grade 3: severe pathological changes.

Abl = molecular target: T1, Abl (Homo sapiens, UniProt P00519); experiment: PhosphoSens CSox-based kinase assay, Abl; type: biochemical; conditions: 1 mM, but not 0.1 mM; Figure 7
T1 construct: purchased Carna 08-001
Description: Kinase activity was measured using the PhosphoSenstechnology (AssayQuant Technologies Inc., Marlborough, MA) as detailed in the Supporting Information. […]
Visabron c (4-4) safety by in vitro evaluation using PhosphoSens - CSox based kinase assays:
A powerful method was used to measure the activity of recombinant protein kinases using a homogeneous and continuous (kinetic) format, where the level of chelation-enhanced fluorescence (CHEF) that is directly proportional to the amount of phosphorylated, real-time sensors consisting of sulfonamido-oxine (Sox) chromophore, linked to a peptide or protein substrates of selective kinases 6. […]
Kinase activity measurements: Kinase activity was measured continuously using the PhosphoSens® technology (AssayQuant Technologies Inc., Marlborough, MA) according to the manufacturers’ recommendations. This one-step homogeneous assay format uses chelation -enhanced fluorescence via optimized substrate sensors containing the unnatural fluorogenic amino -acid Sox. […]
Final reaction conditions : Protein kinase activity was determined in 54 mM HEPES, pH 7.5, 1 mM ATP, 1.2 mM DTT, 0.012% Brij-35, 0.52 mM EGTA, 10 mM MgCl2, 1% glycerol, 0.2mg/ml BSA, and 15 μM Sox -based sensor. […]

[2] = test system: experimental autoimmune encephalomyelitis (EAE); experiment: MOG-induced EAE in C57BL/6 mice; type: in vivo, C57Bl/6 female mice
Description: EAE was induced in C57bl/6 mice by immunization with MOG/CFA and injection of pertussis toxin as described in the Experimental Section. The body weight, neurological scores, and disease incidence were monitored daily for 35 days. Immunized mice (n = 10–14 in each group) were treated (i.p. injection) at time points indicated by arrows. Histology was performed on day 35 on all groups. Data shown are the mean ± SEM, evaluated by the nonparametric Kruskal–Wallis test followed by a Dunn’s postanalysis. All p-values <0.05 were considered statistically significant. (A) Neurological clinical score. Visabron c (4–4) (green) at a cumulative dose of 25 mg/kg (5 mg/kg every other day, for 8 days) and natalizumab (orange) at a cumulative dose of 120 mg/kg (24 mg/kg every other day, for 8 days). […] (E) Dose–response of treatment with visabron c (4–4). Inset: Mean neurological score of the different treatment groups at disease onset (days 15–17). […] (F) Inflammatory infiltrates (blue) in the spinal cord were evaluated by cell counting in H&E stained slices.
C57Bl/6 female mice, 8 weeks old, obtained from the Harlan animal breeding center were used in the study and were maintained in the SPF unit of the Faculty of Medicine. EAE was induced by s.c. injection of 0.2 mL/mouse emulsion containing 200 μg of MOG35–55 peptide in saline and an equal volume of 5 mg/mL Complete Freund’s Adjuvant (CFA) containing 1 mg/mL heat-killed M. tuberculosis (H37Ra; Difco Laboratories, Detroit, MI) . The emulsification was made from equal parts of oil and liquid portions (1:1) in two syringes connected to each other with Leur lock, transferred to an insulin syringe, and 0.2 mL was injected to the right flank of each mouse. On the day of immunization, pertussis toxin (200 ng/mL) was injected i.p. at a volume dose of 0.2 mL/mouse. The injection of the pertussis toxin (i.p) was repeated after 48 h to boost the immune recognition reaction. From day four, natalizumab and Visabron c (4–4) were injected i.p. each other day, five times, and the weight, the neurological score and the disease incidence of the mice were monitored until 35 days after immunization. EAE scoring system: mice were observed daily for the appearance of neurological symptoms, which were scored as follows: 0, asymptomatic; 1, partial loss of tail tonicity; 1.5, limp tail; 2, hind limb weakness (right reflex); 3, ataxia; 4, early paralysis; 5, full paralysis; and 6, moribund or dead. The disease incidence was calculated as a percentage of the ratio of the number of new diseased mice per number of living mice at each time-point. In experiments to estimate cell infiltration in the spinal cord at 35 days postimmunization, the mice were euthanized by cervical dislocation and lumbar spinal cords were collected.

[3] = 500 mg/kg i.v., all five mice 7683-7687
[4] = 500 mg/kg per os, all five mice 7688-7692

T1 sequence (P00519 whole entry): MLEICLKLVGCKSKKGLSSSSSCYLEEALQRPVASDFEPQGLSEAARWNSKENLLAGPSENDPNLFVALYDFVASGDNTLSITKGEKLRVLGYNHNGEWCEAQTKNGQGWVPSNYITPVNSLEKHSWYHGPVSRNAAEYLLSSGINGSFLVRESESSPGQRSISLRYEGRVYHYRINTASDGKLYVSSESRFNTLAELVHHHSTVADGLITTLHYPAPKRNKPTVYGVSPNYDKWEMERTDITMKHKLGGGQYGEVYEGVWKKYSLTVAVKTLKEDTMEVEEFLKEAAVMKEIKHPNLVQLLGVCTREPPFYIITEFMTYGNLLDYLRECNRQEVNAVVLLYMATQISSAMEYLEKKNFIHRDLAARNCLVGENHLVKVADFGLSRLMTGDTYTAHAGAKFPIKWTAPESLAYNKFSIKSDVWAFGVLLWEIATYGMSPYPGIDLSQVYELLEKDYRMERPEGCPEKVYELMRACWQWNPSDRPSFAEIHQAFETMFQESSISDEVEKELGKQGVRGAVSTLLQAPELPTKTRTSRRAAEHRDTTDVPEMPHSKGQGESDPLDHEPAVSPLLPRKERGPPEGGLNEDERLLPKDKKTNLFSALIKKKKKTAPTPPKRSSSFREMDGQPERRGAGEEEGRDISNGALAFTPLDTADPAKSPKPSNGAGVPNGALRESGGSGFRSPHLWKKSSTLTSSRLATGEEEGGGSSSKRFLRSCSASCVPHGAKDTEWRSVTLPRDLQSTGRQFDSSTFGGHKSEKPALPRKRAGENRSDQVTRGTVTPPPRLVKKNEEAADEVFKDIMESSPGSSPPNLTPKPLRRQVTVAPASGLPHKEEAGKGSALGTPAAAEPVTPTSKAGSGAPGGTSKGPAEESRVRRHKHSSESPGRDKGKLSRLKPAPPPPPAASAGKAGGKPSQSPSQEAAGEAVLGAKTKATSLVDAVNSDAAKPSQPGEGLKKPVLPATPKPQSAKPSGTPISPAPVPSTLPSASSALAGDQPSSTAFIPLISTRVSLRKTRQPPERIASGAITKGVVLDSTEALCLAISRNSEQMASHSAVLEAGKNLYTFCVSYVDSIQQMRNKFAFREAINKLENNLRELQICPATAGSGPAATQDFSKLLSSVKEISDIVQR

Q: For CSCC[C@@H]1NC(=O)[C@H]([C@@H](C)O)NC(=O)CN(C(=O)[C@@H](N)CCCCN)CCCCNC(=O)NCCCCN(CC(=O)N[C@@H](CC(C)C)C(N)=O)C(=O)[C@H](CC(=O)O)NC(=O)[C@H](CC(C)C)NC1=O [visabron c (4–4)] (H-K[Nlys]TMLD[Nlys]L-NH2; linker 2-7 via CO), which “Histological pathological grade, Brain” value [1, 3] is on record?
A: 0

Q: And the “Histological pathological grade, Heart” value [1, 3]?
A: 0

Q: And the “Histological pathological grade, Kidney” value [1, 3]?
A: 0

Q: And the “Histological pathological grade, Liver” value [1, 3]?
A: 0

Q: What about the “Histological pathological grade, Lung” value [1, 3] of the same compound?
A: 0

Q: What about the “Histological pathological grade, Small Intestine” value [1, 3] of the same compound?
A: 0

Q: And the “Histological pathological grade, Spleen” value [1, 3]?
A: 0

Q: What about the “Histological pathological grade, Stomach” value [1, 3] of the same compound?
A: 0

Q: And the “Histological pathological grade, Large Intestine” value ([1]; 500 mg/kg i.v., mouse 7683)?
A: 0

Q: And the “Histological pathological grade, Large Intestine” value ([1]; 500 mg/kg i.v., mouse 7684, finding considered accidental, most probably not related to the tested compound)?
A: 3

Q: What about the “Histological pathological grade, Large Intestine” value ([1]; 500 mg/kg i.v., mouse 7685, finding considered accidental, most probably not related to the tested compound) of the same compound?
A: 3

Q: What about the “Histological pathological grade, Large Intestine” value ([1]; 500 mg/kg i.v., mouse 7686) of the same compound?
A: 0

Q: And the “Histological pathological grade, Large Intestine” value ([1]; 500 mg/kg i.v., mouse 7687)?
A: 0

Q: And the “Histological pathological grade, Brain” value [1, 4]?
A: 0

Q: And the “Histological pathological grade, Heart” value [1, 4]?
A: 0

Q: What about the “Histological pathological grade, Kidney” value [1, 4] of the same compound?
A: 0

Q: And the “Histological pathological grade, Liver” value [1, 4]?
A: 0

Q: What about the “Histological pathological grade, Lung” value [1, 4] of the same compound?
A: 0

Q: What about the “Histological pathological grade, Small Intestine” value [1, 4] of the same compound?
A: 0

Q: What about the “Histological pathological grade, Spleen” value [1, 4] of the same compound?
A: 0

Q: And the “Histological pathological grade, Stomach” value [1, 4]?
A: 0

Q: And the “Histological pathological grade, Large Intestine” value ([1]; 500 mg/kg per os, mouse 7688)?
A: 0

Q: What about the “Histological pathological grade, Large Intestine” value ([1]; 500 mg/kg per os, mouse 7689) of the same compound?
A: 0

Q: What about the “Histological pathological grade, Large Intestine” value ([1]; 500 mg/kg per os, mouse 7690, finding considered accidental, most probably not related to the tested compound) of the same compound?
A: 2

Q: What about the “Histological pathological grade, Large Intestine” value ([1]; 500 mg/kg per os, mouse 7691) of the same compound?
A: 0

Q: And the “Histological pathological grade, Large Intestine” value ([1]; 500 mg/kg per os, mouse 7692)?
A: 0

Q: And the “Short-term adverse pathological effects on major organs” value ([1]; i.v. or per o.s., 500 mg/kg)?
A: without short-term adverse pathological effects

Q: What about the inhibition at 1000 µM (Abl) of the same compound?
A: 25 to 40%

Q: Which “EAE-associated body weight decrease” value ([2]; 13–16 to 35 days postimmunization, visabron c (4–4) cumulative 25 mg/kg, natalizumab 120 mg/kg i.p., Figure 3B) does the source give for “natalizumab: clinical-grade monoclonal antibody anti-α4β1 produced by Biogen Co. [reference compound]” here?
A: significantly decreased

Q: What about the “Disease incidence vs EAE disease group” value ([2]; Figure 3C) of the same compound?
A: lower disease incidence

Q: What about the “Cumulative neurological scores vs EAE/PBS group” value ([2]; at 35 days postimmunization, Figure 3D) of the same compound?
A: significantly decreased

Q: What about the “Inflammatory cell infiltration in spinal cord (H&E cell counting)” value ([2]; day 35, Figure 3F) of the same compound?
A: significantly reduced

Q: And the “Increase in neurological score vs EAE group” value ([2]; onset (13–16 days) to 35 days postimmunization, i.p., visabron c (4–4) cumulative 25 mg/kg, natalizumab cumulative 120 mg/kg, Figure 3A)?
A: significantly lower
